According to patent US4237311A, “2-Methyl-1-(substituted)phenyl-2-propyl esters of 2-aminopropanoic acid” (priority 1974, dated 1980):

What was measured:
[1] = tested on: 5-HT uptake (5-hydroxytryptamine); experiment: Inhibition of the uptake of 14C-5-HT (drug given i.p. in vivo, uptake in midbrain slices); set-up: species or system mice; settings: ip, 0.5 h, half an hour before killing, mouse midbrain slices, 5-HT 1×10^-7 M, 5 min incubation, read-out: Inhibition (50%) of uptake in vivo, 5-HT (ED50)
Procedure: (§1) 1. Inhibition of the uptake of carbon-14 5-HT and tritiated noradrenaline in vitro and in vivo
The method is described by Ross, Renyi and Ogren in European Journal of Pharmacology 17 (1972), 107-112. […] The drugs were administered intraperitoneally half an hour before the animals were killed and the midbrain was taken out and sliced and incubated in a mixture consisting of, per 100 mg of brain slices, 0.2 n-mole of ^14 C--5--HT, 0.2 n-mole of ^3 H--NA and 11 μmole of glucose in 2 ml of Krebs-Henseleit buffer, pH 7.4. The incubation time was 5 minutes. The radioactive amines taken up in the slices were dissolved in Soluene-350®(Packard) and the amounts were determined with the double labelling technique by liquid scintillation. The dose producing 50 percent decrease of the active uptake (ED50) was determined graphically from dose response curves. Active uptake is defined as that part of the radioactive uptake which is inhibited by a high concentration of cocaine. All doses were given at least to four animals.

[2] = tested on: NA uptake (noradrenaline); experiment: Inhibition of the uptake of tritiated noradrenaline (drug given i.p. in vivo, uptake in midbrain slices); set-up: species or system mice; settings: ip, 0.5 h, half an hour before killing, mouse midbrain slices, noradrenaline 1×10^-7 M, 5 min incubation, read-out: Inhibition (50%) of uptake in vivo, NA (ED50)
Procedure: as §1
The drugs were administered intraperitoneally half an hour before the animals were killed and the midbrain was taken out and sliced and incubated in a mixture consisting of, per 100 mg of brain slices, 0.2 n-mole of ^14 C--5--HT, 0.2 n-mole of ^3 H--NA and 11 μmole of glucose in 2 ml of Krebs-Henseleit buffer, pH 7.4. The incubation time was 5 minutes. The radioactive amines taken up in the slices were dissolved in Soluene-350®(Packard) and the amounts were determined with the double labelling technique by liquid scintillation. The dose producing 50 percent decrease of the active uptake (ED50) was determined graphically from dose response curves. Active uptake is defined as that part of the radioactive uptake which is inhibited by a high concentration of cocaine. All doses were given at least to four animals.

5-HTP response = 5-HTP response potentiation test; assay type: in vivo, mice; settings: for minimal effective dose: Mus musculus, ip, test drug one hour (or 4, 24 hours) before dl-5-HTP 90 mg/kg i.v., mice, read-out: Potentiation of 5-HTP, effective dose (least dose producing maximal score +3 in all animals)
Text: 1. 5-HTP response potentiation test
Inhibition of the uptake of 5-HT potentiates the effects of administered 5-hydroxytryptophan (5-HTP) probably by increasing the amount of 5-HT at the receptor. […] The strength of the syndrome is scored from 0 to +3.

male rats = experiment: Drug induced arrhythmias in rats; assay type: in vivo; settings: male rats anesthetized with Nembutal, stepwise increased doses
Text: DRUG INDUCED ARRHYTHMIAS IN RATS
Test drugs were intravenously administered to male rats anesthetized with Nembutal®. The doses were increased stepwise up to the lethal dose and the first dose which induced arrhythmia was noted.

in vivo = settings: mouse, iv, mice, killing 50% within 7 days, read-out: Acute toxicity LD50
Procedure: ACUTE TOXICITY, BEHAVIOUR AND ANTICHOLINERGIC STUDY IN MICE
The compounds were given by intravenous route to 6 mice. LD50 is the dose which kills 50% of the animals within 7 days. Seizures, gait, sedation and gripstrength were recorded.

[3] = tested on: noradrenaline (NA) re-uptake mechanism; settings: central nervous system; cited from earlier work
man = settings: cited from earlier work
[4] = tested on: 5-hydroxytryptamine (5-HT) re-uptake mechanism; settings: central nervous system; cited from earlier work

Row | Structure (SMILES) | ED50 [1] | ED50 [2] | minimal effective dose (5-HTP response) | Arrhythmia, accumulated i.v. dose where there are signs of arrhythmia (male rats) | LD50 at 168 h (in vivo) | inhibition of the re-uptake mechanism of noradrenaline (in words) [3] | anticholinergic effect and symptoms (in words) (man) | mood and psychomotor effect (in words) (man) | onset of the antidepressive effect (man; treatment with imipramine) | potentiation of dl-5-HTP by the reference drug (in words) (5-HTP response; control groups, reference) | inhibition of the re-uptake mechanism of 5-hydroxytryptamine (in words) [4]
1 | CC(N)C(=O)OC(C)(C)Cc1ccc(F)cc1 (centres unmarked) [GEA 822] | 30 mg/kg | > 40 mg/kg |  |  |  |  |  |  |  |  | 
2 | CC(N)C(=O)OC(C)(C)Cc1cccc(Cl)c1 (centres unmarked) [GEA 935] | 5 mg/kg | > 40 mg/kg | 3 mg/kg |  |  |  |  |  |  |  | 
3 | CC(N)C(=O)OC(C)(C)Cc1ccc(Cl)cc1.Cl (centres unmarked) [GEA 654, 2-aminopropanoic acid 1-(4-chlorophenyl)-2-methyl-2-propylester hydrochloride] | 15 mg/kg | > 40 mg/kg | 1 mg/kg | 63 mg/kg | 70 mg/kg |  |  |  |  |  | 
4 | CN(C)CCCN1c2ccccc2CCc2ccccc21 [Imipramine] | 24 mg/kg | 6 mg/kg | 15 mg/kg | 8 mg/kg |  | inhibits the re-uptake mechanism of noradrenaline (NA) | anticholinergic and causes anticholinergic symptoms such as dryness of the mouth, tremor, tachycardia and sweating | both mood elevating and psychomotor activating | about 3 weeks | constantly potentiated dl-5-HTP | inhibits the re-uptake mechanism of noradrenaline (NA) and 5-hydroxytryptamine (5-HT)
5 | CC(N)C(=O)OC(C)(C)Cc1ccc(Br)cc1 (centres unmarked) [GEA 917] | 25 mg/kg | > 40 mg/kg | 5 mg/kg |  |  |  |  |  |  |  | 
6 | Cc1ccc(CC(C)(C)OC(=O)C(C)N)cc1 (centres unmarked) [GEA 937] | 10 mg/kg | > 40 mg/kg | 12 mg/kg |  |  |  |  |  |  |  | 
7 | CC(N)C(=O)OC(C)(C)Cc1ccc(Cl)c(Cl)c1 (centres unmarked) [GEA 699] | 15 mg/kg | > 40 mg/kg | 7 mg/kg |  |  |  |  |  |  |  | 
8 | CC(N)C(=O)OC(C)(C)Cc1ccccc1 (centres unmarked) [GEA 916] | 15 mg/kg | > 40 mg/kg | 8 mg/kg |  |  |  |  |  |  |  | 
